Data from publication PMC7614683, “A small molecule PI3Kα activator for cardioprotection and neuroregeneration” (Nature, 2023).

Target: T1, full length p110α/p85α (Homo sapiens, UniProt P42336)
T1 construct: Full-length human p110α was expressed either in a complex with full-length human p85α (for HTS, biochemistry and HDX-MS); 6xHis tag followed by TEV protease site (N); host or cells: Spodoptera frugiperda Sf9, baculovirus
Experiment: HDX-MS
Type: binding
Procedure: Sample preparation: HDX-MS experiments were carried out as described previously. […] In total, three biological replicates, i.e. three separate protein preparations, each with exchange experiments carried out in triplicate were conducted. Data presented in the manuscript is a single biological replicate. Data acquisition and analysis were as follows: Each sample was thawed and injected onto an M-Class Acquity UPLC with HDX Technology (Waters) kept at 0.1°C. Proteins were digested in-line using an Enzymate Pepsin Column (Waters, #186007233) at 15°C for 2 min at 200 μl/min. Peptic peptides were then eluted onto an Acquity UPLC BEH C18 Column (Waters, #186002346) equilibrated in Pepsin-A buffer (0.1% formic acid) and separated using a 5-35% gradient of Pepsin-B buffer (0.1% formic acid, 99% acetonitrile) over 7 min at a flowrate of 40 μl/min. Data were collected on a Waters Cyclic IMS, with an electrospray ionisation source, from 50-2000 m/z. Data were collected in the HDMS^E mode. A single pass of the cyclic IMS was conducted. A “blank” sample of protein dilution buffer with quench was run between samples, and carry-over of peptides was routinely monitored. Five replicates were used to identify non-deuterated peptides. Criteria used to include peptides in the HDX-MS dataset were: minimum intensity 5000, minimum sequence length 5, maximum sequence length 25, a minimum of 3 fragment ions, a minimum of 0.1 products per amino acid, a minimum score of 6.62, a maximum MH+ Error of 10 ppm, identification in at least two datasets with a retention time RSD of less than 10%. Data was analysed using Protein Lynx Global Server (Waters) and DynamX (Waters). All peptides were manually inspected for EX1 kinetics and sufficient quality of the peptide envelope. Data quality, experiment design, and reporting of data meets the criteria as determined by the HDX-MS community. Uptake files were created using Baryonyx. Data are available via ProteomeXchange with identifier PXD037721.

[1] = PK3CA_HUMAN peptide 241-250, time point 3 of 5
[2] = PK3CA_HUMAN peptide 241-250, time point 4 of 5
[3] = PK3CA_HUMAN peptide 241-250, time point 5 of 5
[4] = PK3CA_HUMAN peptide 260-266, time point 1 of 5
[5] = PK3CA_HUMAN peptide 260-266, time point 2 of 5
[6] = PK3CA_HUMAN peptide 260-266, time point 3 of 5
[7] = PK3CA_HUMAN peptide 260-266, time point 4 of 5
[8] = PK3CA_HUMAN peptide 260-266, time point 5 of 5
[9] = PK3CA_HUMAN peptide 262-272, time point 1 of 5
[10] = PK3CA_HUMAN peptide 262-272, time point 2 of 5
[11] = PK3CA_HUMAN peptide 262-272, time point 3 of 5
[12] = PK3CA_HUMAN peptide 262-272, time point 4 of 5
[13] = PK3CA_HUMAN peptide 262-272, time point 5 of 5
[14] = PK3CA_HUMAN peptide 273-281, time point 1 of 5
[15] = PK3CA_HUMAN peptide 273-281, time point 2 of 5
[16] = PK3CA_HUMAN peptide 273-281, time point 3 of 5
[17] = PK3CA_HUMAN peptide 273-281, time point 4 of 5
[18] = PK3CA_HUMAN peptide 273-281, time point 5 of 5
[19] = PK3CA_HUMAN peptide 278-286, time point 1 of 5
[20] = PK3CA_HUMAN peptide 278-286, time point 2 of 5
[21] = PK3CA_HUMAN peptide 278-286, time point 3 of 5
[22] = PK3CA_HUMAN peptide 278-286, time point 4 of 5
[23] = PK3CA_HUMAN peptide 278-286, time point 5 of 5
[24] = PK3CA_HUMAN peptide 287-293, time point 1 of 5
[25] = PK3CA_HUMAN peptide 287-293, time point 2 of 5
[26] = PK3CA_HUMAN peptide 287-293, time point 3 of 5
[27] = PK3CA_HUMAN peptide 287-293, time point 4 of 5
[28] = PK3CA_HUMAN peptide 287-293, time point 5 of 5
[29] = PK3CA_HUMAN peptide 288-293, time point 1 of 5
[30] = PK3CA_HUMAN peptide 288-293, time point 2 of 5
[31] = PK3CA_HUMAN peptide 288-293, time point 3 of 5
[32] = PK3CA_HUMAN peptide 288-293, time point 4 of 5
[33] = PK3CA_HUMAN peptide 288-293, time point 5 of 5
[34] = PK3CA_HUMAN peptide 326-333, time point 1 of 5
[35] = PK3CA_HUMAN peptide 326-333, time point 2 of 5
[36] = PK3CA_HUMAN peptide 326-333, time point 3 of 5
[37] = PK3CA_HUMAN peptide 326-333, time point 4 of 5

T1 sequence (P42336 whole entry): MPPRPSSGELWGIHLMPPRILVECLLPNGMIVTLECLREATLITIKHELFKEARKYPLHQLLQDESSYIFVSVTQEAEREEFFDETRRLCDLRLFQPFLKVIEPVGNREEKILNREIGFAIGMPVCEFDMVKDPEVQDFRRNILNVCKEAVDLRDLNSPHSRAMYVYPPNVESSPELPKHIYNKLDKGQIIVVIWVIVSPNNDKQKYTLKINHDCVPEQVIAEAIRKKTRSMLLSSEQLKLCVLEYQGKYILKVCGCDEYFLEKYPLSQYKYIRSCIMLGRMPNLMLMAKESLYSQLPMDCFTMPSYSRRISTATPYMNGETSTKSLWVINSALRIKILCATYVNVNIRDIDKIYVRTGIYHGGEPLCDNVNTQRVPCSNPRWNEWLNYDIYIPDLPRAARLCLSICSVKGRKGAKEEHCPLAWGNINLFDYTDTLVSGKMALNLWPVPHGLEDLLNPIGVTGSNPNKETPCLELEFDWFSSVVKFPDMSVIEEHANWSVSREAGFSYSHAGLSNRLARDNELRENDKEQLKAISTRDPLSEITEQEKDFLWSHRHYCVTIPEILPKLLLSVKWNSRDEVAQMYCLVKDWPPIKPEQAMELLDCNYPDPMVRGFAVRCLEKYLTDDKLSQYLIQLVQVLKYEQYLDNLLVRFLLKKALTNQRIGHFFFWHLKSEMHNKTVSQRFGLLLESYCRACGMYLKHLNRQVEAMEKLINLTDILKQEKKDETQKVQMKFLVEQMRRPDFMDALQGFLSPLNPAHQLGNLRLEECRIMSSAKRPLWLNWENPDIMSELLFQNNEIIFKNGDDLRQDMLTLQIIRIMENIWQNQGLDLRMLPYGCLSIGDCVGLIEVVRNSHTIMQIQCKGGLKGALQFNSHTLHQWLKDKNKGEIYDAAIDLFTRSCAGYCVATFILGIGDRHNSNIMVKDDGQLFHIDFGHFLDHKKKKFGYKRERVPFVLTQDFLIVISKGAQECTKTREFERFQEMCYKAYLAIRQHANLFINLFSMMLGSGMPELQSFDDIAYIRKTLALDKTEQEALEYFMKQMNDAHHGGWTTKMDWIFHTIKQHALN
T1 sequence (P27986 whole entry partner): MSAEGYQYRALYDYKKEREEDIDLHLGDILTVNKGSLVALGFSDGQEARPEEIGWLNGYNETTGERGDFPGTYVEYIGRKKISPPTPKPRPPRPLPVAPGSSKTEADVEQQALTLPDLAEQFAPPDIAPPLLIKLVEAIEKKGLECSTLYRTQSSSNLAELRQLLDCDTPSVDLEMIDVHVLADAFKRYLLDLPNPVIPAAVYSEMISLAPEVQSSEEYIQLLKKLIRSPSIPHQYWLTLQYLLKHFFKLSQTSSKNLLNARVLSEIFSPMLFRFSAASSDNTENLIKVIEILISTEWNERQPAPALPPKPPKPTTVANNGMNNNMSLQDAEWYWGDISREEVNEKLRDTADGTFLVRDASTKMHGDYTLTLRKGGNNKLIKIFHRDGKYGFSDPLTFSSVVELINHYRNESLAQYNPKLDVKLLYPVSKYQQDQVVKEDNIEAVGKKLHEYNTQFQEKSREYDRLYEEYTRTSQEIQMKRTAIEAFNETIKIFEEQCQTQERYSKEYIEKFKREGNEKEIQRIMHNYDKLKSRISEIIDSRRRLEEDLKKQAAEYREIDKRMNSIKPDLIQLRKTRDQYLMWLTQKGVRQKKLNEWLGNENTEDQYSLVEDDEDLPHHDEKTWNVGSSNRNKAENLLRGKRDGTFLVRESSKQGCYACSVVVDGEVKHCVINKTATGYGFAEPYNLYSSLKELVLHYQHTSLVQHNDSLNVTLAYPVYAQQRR

In the case of CCN1CCN(c2ccc(Nc3cc(Nc4cccc5c4N(C(C)=O)CC5)ccn3)cc2)CC1 [Compound 1938], the “HDX difference (%D)” value [1] is reported as 0.6%, the “HDX difference (Da)” value [1] is reported as 0.0529 Da and the “HDX difference (%D)” value [2] is reported as 0.112%. For the same compound, the “HDX difference (Da)” value [2] was 0.01 Da, the “HDX difference (%D)” value [3] was 0.113% and the “HDX difference (Da)” value [3] was 0.01 Da. For the same compound, the “HDX difference (%D)” value [4] was -0.0157%, the “HDX difference (Da)” value [4] was -0.000943 Da and the “HDX difference (%D)” value [5] was 0.0014%. The “HDX difference (Da)” value [5] was 8.39e-5 Da, the “HDX difference (%D)” value [6] was 0.136% and the “HDX difference (Da)” value [6] was 0.00818 Da. The “HDX difference (%D)” value [7] was 0.659%, the “HDX difference (Da)” value [7] was 0.04 Da and the “HDX difference (%D)” value [8] was 1.2%. For the same compound, the “HDX difference (Da)” value [8] was 0.07 Da, the “HDX difference (%D)” value [9] was -0.8% and the “HDX difference (Da)” value [9] was -0.07 Da. The “HDX difference (%D)” value [10] was 0.264%, the “HDX difference (Da)” value [10] was 0.0238 Da and the “HDX difference (%D)” value [11] was 0.3%. The “HDX difference (Da)” value [11] was 0.0282 Da, the “HDX difference (%D)” value [12] was -0.571% and the “HDX difference (Da)” value [12] was -0.05 Da. For the same compound, the “HDX difference (%D)” value [13] was -0.7%, the “HDX difference (Da)” value [13] was -0.06 Da and the “HDX difference (%D)” value [14] was 1.3%. The “HDX difference (Da)” value [14] was 0.10 Da, the “HDX difference (%D)” value [15] was 0.9% and the “HDX difference (Da)” value [15] was 0.07 Da. The “HDX difference (%D)” value [16] was 0.8%, the “HDX difference (Da)” value [16] was 0.06 Da and the “HDX difference (%D)” value [17] was 0.743%. For the same compound, the “HDX difference (Da)” value [17] was 0.06 Da, the “HDX difference (%D)” value [18] was 0.428% and the “HDX difference (Da)” value [18] was 0.0342 Da. The “HDX difference (%D)” value [19] was -0.131%, the “HDX difference (Da)” value [19] was -0.01 Da and the “HDX difference (%D)” value [20] was -0.178%. The “HDX difference (Da)” value [20] was -0.0142 Da, the “HDX difference (%D)” value [21] was -0.652% and the “HDX difference (Da)” value [21] was -0.05 Da. The “HDX difference (%D)” value [22] was -1.2%, the “HDX difference (Da)” value [22] was -0.10 Da and the “HDX difference (%D)” value [23] was -1.0%. The “HDX difference (Da)” value [23] was -0.08 Da, the “HDX difference (%D)” value [24] was 0.00815% and the “HDX difference (Da)” value [24] was 0.000489 Da. For the same compound, the “HDX difference (%D)” value [25] was 0.168%, the “HDX difference (Da)” value [25] was 0.01 Da and the “HDX difference (%D)” value [26] was -0.19%. For the same compound, the “HDX difference (Da)” value [26] was -0.0114 Da, the “HDX difference (%D)” value [27] was -0.0604% and the “HDX difference (Da)” value [27] was -0.00362 Da. For the same compound, the “HDX difference (%D)” value [28] was -0.4%, the “HDX difference (Da)” value [28] was -0.0241 Da and the “HDX difference (%D)” value [29] was -0.334%. For the same compound, the “HDX difference (Da)” value [29] was -0.0167 Da, the “HDX difference (%D)” value [30] was -0.17% and the “HDX difference (Da)” value [30] was -0.00848 Da. For the same compound, the “HDX difference (%D)” value [31] was -0.5%, the “HDX difference (Da)” value [31] was -0.0241 Da and the “HDX difference (%D)” value [32] was 0.8%. For the same compound, the “HDX difference (Da)” value [32] was 0.04 Da, the “HDX difference (%D)” value [33] was -0.113% and the “HDX difference (Da)” value [33] was -0.00564 Da. For the same compound, the “HDX difference (%D)” value [34] was -1.8%, the “HDX difference (Da)” value [34] was -0.13 Da and the “HDX difference (%D)” value [35] was -4.4%. The “HDX difference (Da)” value [35] was -0.31 Da, the “HDX difference (%D)” value [36] was -3.0% and the “HDX difference (Da)” value [36] was -0.21 Da. For the same compound, the “HDX difference (%D)” value [37] was -3.1%, the “HDX difference (Da)” value [37] was -0.21 Da and the “HDX difference (%D)” value (PK3CA_HUMAN peptide 326-333, time point 5 of 5) was -4.2%.
